Laboratory results: US6764854B2, “Methods for generating doubled haploid plants” (Northwest Plant Breeding Company, priority 1998, dated 2004)
Values joined by “and” are separate entries in the source; they are usually repeats but may differ in a detail not shown here. Identical values can stand only once.

Legend:
[1] = tested on: Pavon 76 microspores; assay: Optimization of 2,4-D concentration, embryoid yield, green plants and doubled haploids (Example 5); type: cell-based, wheat
Method: (§1) Pretreatment of Spikes. After removing the lower nodal section, the collected tillers are placed in an autoclaved sterile flask, containing 50 ml of sterile (autoclaved) distilled water and preferably 0.1% (w/v) 2-HNA and 10^−6 to 10^−5 M 2,4-D. The open end of a plastic bag (thin-walled, grocery store bag) is then wrapped around the neck of the flask and sealed around the neck with masking tape to prevent microbial contamination and excessive loss of water. The flask is then placed in an incubator set at the desired stress temperature, optionally 33° C., but the temperature employed may be higher or lower. The optimum period of pretreatment varies with the genotype, but is preferably from between about 0.5 hours and about 72 hours, depending on the temperature. A presently preferred temperature pretreatment regime is from about 48 hours to about 72 hours at a temperature of about 33° C. The flask containing tillers can also be stored in a refrigerator at 4° C. for up to 1 month before subjecting the microspores to temperature stress treatment. It is important that after the temperature stress treatment, the tillers should not be stored in a refrigerator at 4° C. because the microspore viability goes down sharply.
(§2) Culture of isolated microspores. Isolated microspores are cultured in liquid NPB 98-1 medium or liquid NPB-99 medium, preferably liquid NPB-99 medium, as a suspension culture. An aliquot of 2 ml media per 35 mm×10 mm Petri dish, or 5 ml media per 60 mm×15 mm Petri dish, at a density of approximately 1.5×10^4 microspores per ml is effective. Immature ovaries are added to the culture at a density of one per ml of medium immediately preceding the incubation. Ovaries are aseptically picked out from fresh and disinfected spikes. Ovaries of all genotypes are effective for the present invention, but the ovaries from varieties Chris or Pavon 76 are preferred for embryogenesis of all wheat varieties tested. The Petri dish is sealed with parafilm and incubated in the dark at 27° C.
(§3) When embryoids reach the size of 1 to 2 mm, they are transferred aseptically to solid 190-2 or 190-2(b) medium, preferably 190-2(b) medium, at a density of 25-30 embryoids in each 100×15 mm Petri dish. They are incubated under continuous fluorescent light at room temperature (22° C.). In approximately two weeks, green plantlets develop and are ready for transfer to soil. Green plants are raised in the greenhouse, much like plants grown from seeds. If plants appear to be haploid, colchicine can be applied to induce chromosome doubling. Seeds produced on any plants are instantly homozygous, and so can immediately be used for rapid evaluation and selection in breeding, for analyses in genetics research, or for selection and evaluation of transformants in biotechnology.
Experiments were conducted to optimize the amount of 2,4-D utilized to induce androgenesis and regeneration of green plants. Plant material was treated in accordance with the methods set forth in Example 1, except as described herein. Spikes of wheat cultivar Pavon 76 were treated with 2,4-D at concentrations of 0, 0.2, 2.2, or 22.1 mg/l plus a fixed dose of 2-HNA at 100 mg/l. Two spikes were utilized per treatment.
Spikes were incubated in sterile flasks with 2-HNA plus different doses of 2,4-D. The flasks were incubated at 33° C. for 46 hours before blending to release microspores. Microspores were cultured in 6-cm Petri dishes, each containing 5 ml medium NPB 98-1 plus 0 or 0.2 mg/l 2,4-D and incubated at 27° C. The regeneration medium was 190-2. Five fresh, live, immature Chris ovaries per Petri dish were included in each Petri dish.

[2] = tested on: microspores of wheat cultivar Chris; assay: Optimization of 2,4-D concentration, embryoid yield and green plants (Example 4); type: cell-based
Method: as §1, §2, §3
Experiments were conducted to optimize the amount of 2,4-D utilized to enhance androgenesis and regeneration of green plants. Plant material was treated in accordance with the methods set forth in Example 1, except as described herein. Tillers of wheat cultivar Chris were treated with 2,4-D at concentrations of 0.2, 22.1, or 221 mg/l plus a fixed dose of 2-HNA at 100 mg/l. Two tillers were utilized per treatment.
Tillers in flasks with 2-HNA, plus different 2,4-D doses were placed at 33° C. for 70 hours before blending to release microspores. Microspores were cultured in 60×15 mm Petri dishes, each containing 5 ml medium NPB 98-1 plus 1 mg/l 2,4-D and incubated at 27° C. The regeneration medium was 190-2. Five fresh, live, immature Chris ovaries per Petri dish were included in each Petri dish.

[3] = tested on: microspores of wheat cultivar Chris; assay: Effect of 2-HNA concentration on embryoid induction and green plant regeneration (Example 2); type: cell-based
Method: as §1, §2, §3
Experiments were conducted to evaluate the effect of 2-HNA on embryoid induction and green plant regeneration. Plant material was treated in accordance with the methods set forth in Example 1, except as described herein. Tillers of wheat cultivar Chris were treated with 2-HNA at concentrations of 0, 1, 10 or 100 mg/l. Three tillers were utilized for each concentration of 2-HNA.
Chris tillers were placed in sterile flasks and incubated with 2-HNA dissolved in sterile water at 33° C. for 66 hours before blending to release the microspores. As an option to ease the work schedule, newly sampled tillers may be incubated with 2-HNA at 4° C. for up to 72 hrs prior to the 33° C. treatment. Isolated microspores were cultured in 60×15 mm Petri dishes each containing 5 ml of medium NPB 98-1, including 1 mg/l phenylacetic acid (PAA) and incubated at 27° C. The regeneration medium was 190-2. Five fresh, live, Chris ovaries per Petri dish were included in each Petri dish.

[4] = tested on: microspores of wheat cultivar Pavon 76; assay: Optimization of 2-HNA concentration, embryoid yield and green plants (Example 3); type: cell-based
Method: as §1, §2, §3
Experiments were conducted to optimize the amount of 2-HNA utilized to stimulate androgenesis and regeneration of green plants. Plant material was treated in accordance with the methods set forth in Example 1, except as described herein. Tillers of wheat cultivar Pavon 76 were treated with 2-HNA at concentrations of 0, 100, 500 or 1000 mg/l. Two tillers were utilized per treatment.
Tillers were placed in sterile flasks containing 50 ml 2-HNA solution and incubated at 33° C. for 46 hours before blending to release microspores. Microspores were again cultured in 60×15 mm Petri dishes, each containing 5 ml medium NPB 98-1 and incubated at 27° C. The regeneration medium was 190-2. Five fresh, live, immature Pavon 76 ovaries per Petri dish were included in each Petri dish.

[5] = pretreatment 2,4-D 0.2 mg/l + 2-HNA 100 mg/l, mean
[6] = pretreatment 2,4-D 0.2 mg/l + 2-HNA 100 mg/l, single repeats
[7] = pretreatment 2,4-D 2.2 mg/l + 2-HNA 100 mg/l, mean
[8] = pretreatment 2,4-D 2.2 mg/l + 2-HNA 100 mg/l, single repeats
[9] = pretreatment 2,4-D 22.1 mg/l + 2-HNA 100 mg/l, mean
[10] = pretreatment 2,4-D 22.1 mg/l + 2-HNA 100 mg/l, single repeats
[11] = pretreatment 2-HNA 100 mg/l, 2,4-D 0 mg/l, mean
[12] = 2-HNA 100 mg/l, % of embryoids transferred to regeneration medium, single repeats

Compound: O=C(O)COc1ccc(Cl)cc1Cl [2,4-D, 2,4-dichlorophenoxyacetic acid]
- 2,4-D concentration during the pretreatment at which number of induced embryoids and percentage of regenerated green plants were highest ([1]; plus 2-HNA 100 mg/l): 2.2 mg/L
- Number of embryoids ([1]; pretreatment 2,4-D 0.2 mg/l + 2-HNA 100 mg/l, induction medium 2,4-D 0.2 mg/l, single repeats): 1200 and 1121
- Number of embryoids [1, 5]: 1161
- green plant (%) [1, 5]: 9%
- green plant (%) [1, 6]: 9%
- Number of embryoids ([1]; pretreatment 2,4-D 2.2 mg/l + 2-HNA 100 mg/l, induction medium 2,4-D 0.2 mg/l, single repeats): 1675 and 1634
- Number of embryoids [1, 7]: 1655
- green plant (%) [1, 7]: 30%
- Doubled-Haploid % [1, 8]: 50% and 38%
- green plant (%) [1, 8]: 31% and 28%
- Number of embryoids ([1]; pretreatment 2,4-D 22.1 mg/l + 2-HNA 100 mg/l, induction medium 2,4-D 0.2 mg/l, single repeats): 1119 and 1012
- Number of embryoids [1, 9]: 1066
- green plant (%) [1, 9]: 18%
- Doubled-Haploid % [1, 10]: 17%
- 2,4-D concentration during the pretreatment at which number of induced embryoids and percentage of regenerated green plants were highest ([2]; plus 2-HNA 100 mg/l): 1 mg/L
- Number of embryoids ([2]; pretreatment 2,4-D 0.2 mg/l + 2-HNA 100 mg/l, 33° C. 70 hours, induction medium 2,4-D 1 mg/l, single repeats): 2088 and 2107
- Number of embryoids [2, 5]: 2098
- green plant (%) [2, 5]: 92%
- green plant (%) [2, 6]: 83% and 100%
- Number of embryoids ([2]; pretreatment 2,4-D 22.1 mg/l + 2-HNA 100 mg/l, 33° C. 70 hours, induction medium 2,4-D 1 mg/l, single repeats): 1908 and 1156
- Number of embryoids [2, 9]: 1532
- green plant (%) [2, 9]: 71%
- green plant (%) [2, 10]: 63% and 79%
- Number of embryoids ([2]; pretreatment 2,4-D 221 mg/l + 2-HNA 100 mg/l, 33° C. 70 hours, induction medium 2,4-D 1 mg/l, single repeats): 0
- Number of embryoids ([2]; pretreatment 2,4-D 221 mg/l + 2-HNA 100 mg/l, mean): 0

Compound: O=C(O)c1cccnc1O [2-HNA, 2-hydroxynicotinic acid]
- Number of embryoids ([1]; pretreatment 2-HNA 100 mg/l, 2,4-D 0 mg/l, induction medium 2,4-D 0, 33° C. 46 hours, single repeats): 603 and 607
- Number of embryoids [1, 11]: 605
- green plant (%) [1, 11]: 19%
- green plant (%) ([1]; pretreatment 2-HNA 100 mg/l, 2,4-D 0 mg/l, single repeats): 13% and 25%
- number of induced embryoids, dependence on concentration ([3]; 2-HNA 0, 1, 10 or 100 mg/l): increases with increasing concentrations of 2-HNA
- percentage of regenerated green plants, dependence on concentration ([3]; 2-HNA 0, 1, 10 or 100 mg/l): does not significantly differ
- green plant (%) ([3]; 2-HNA 1 mg/l, % of embryoids transferred to regeneration medium, single repeats): 100%
- Number of embryoids ([3]; 2-HNA 1 mg/l, mean): 118
- green plant (%) ([3]; 2-HNA 1 mg/l, mean): 100%
- green plant (%) ([3]; 2-HNA 10 mg/l, % of embryoids transferred to regeneration medium, single repeats): 94% and 100%
- Number of embryoids ([3]; 2-HNA 10 mg/l, mean): 322
- green plant (%) ([3]; 2-HNA 10 mg/l, mean): 97%
- Number of embryoids ([3]; 2-HNA 100 mg/l, 33° C. 66 hours, single repeats (rep 1, rep 2)): 1258 and 1217
- green plant (%) [3, 12]: 100%
- Number of embryoids ([3]; 2-HNA 100 mg/l, mean): 1238
- green plant (%) ([3]; 2-HNA 100 mg/l, mean): 100%
- green plant (%) [4, 12]: 60% and 67%
- # embryoids ([4]; 2-HNA 100 mg/l, mean): 1356
- green plant (%) ([4]; 2-HNA 100 mg/l, mean): 63%
- green plant (%) ([4]; 2-HNA 500 mg/l, % of embryoids transferred to regeneration medium, single repeats): 33%
- # embryoids ([4]; 2-HNA 500 mg/l, mean): 66
- green plant (%) ([4]; 2-HNA 500 mg/l, mean): 33%
- green plant (%) ([4]; 2-HNA 1000 mg/l, % of embryoids transferred to regeneration medium, single repeats): 40% and 22%
- # embryoids ([4]; 2-HNA 1000 mg/l, mean): 768
- green plant (%) ([4]; 2-HNA 1000 mg/l, mean): 31%
- 2-HNA concentration at which number of induced embryoids and percentage of regenerated green plants were highest ([4]; tested 0, 100, 500 or 1000 mg/l): 100 mg/L
